# Measured values reported in patent US10172868B2, “Substituted quinazolines for inhibiting kinase activity” (NeuPharma, Inc., priority 2013, dated 2019).
# Key:
# EGFR (ErbB1) T790M L858R = EGFR (ErbB1) T790M L858R (Homo sapiens (Human), UniProt P00533, L858R/T790M); experiment: Z'-LYTE kinase inhibition assay, EGFR L858R/T790M; assay type: biochemical; conditions: for inhibition at 0.0137 µM: read-out: % inhibition against EGFR L858R/T790M (Compound at 0.0137 μM)
# Description: Inhibitory activities of compounds against BTK, EGFR and EGFR mutants (EGFR L858R, EGFR T790M, EGFR L858R/T790M), FGFR1, FGFR2, JAK2, JAK3 and KDR were measured by Invitrogen using Z'-LYTE® Method as briefly described in the following. Test Compounds are screened in 1% DMSO (final) in the well. For 10 point titrations, 3-fold serial dilutions are conducted from the starting concentration. All ATP Solutions are diluted to a 4× working concentration in Kinase Buffer (50 mM HEPES pH 7.5, 0.01% BRIJ-35, 10 mM MgCl2, 1 mM EGTA). Peptide/Kinase Mixtures are diluted to a 2× working concentration in the appropriate Kinase Buffers as described below. (iv) Peptide/Kinase Mixtures for Measurement of EGFR (ErbB1) T790M L858R: The 2×EGFR (ErbB1) […] mixture is prepared in 50 mM HEPES pH 6.5, 0.01% BRIJ-35, 10 mM MgCl2, 1 mM EGTA, 0.02% NaN3. […] After the 1 hour Kinase Reaction incubation, 5 μL of a 1:64 dilution of Development Reagent B is added. Reaction starts by 30-second shaking of mixture consisting of 2.5 μL 4× test compound, […] 2× kinase reaction mixture and 2.5 μL 4×ATP Solution on Bar-coded Corning, low volume NBS, black 384-well plate (Corning Cat. #3676). Then the mixture is incubated for 60-minute at room temperature for the kinase reaction, followed by addition of 5 μL of a 1:1024 dilution of development reagent A and 30-second plate shake. The mixture is then incubated for another 60-minute at room temperature for development reaction. Finally fluorescence is read by plate reader. To determine IC50 of a compound against EGFR, EGFR mutant and other kinases, a series of concentrations of the compound were tested for the inhibition.
# H1975 cells = experiment: Inhibition of cancer cell growth, MTT assay, H1975; conditions: Homo sapiens, NCI-H1975, 72 h, read-out: IC50 in H1975 cells
# EGFR (ErbB1) = EGFR (ErbB1) (Homo sapiens (Human), UniProt P00533); experiment: Z'-LYTE kinase inhibition assay, EGFR; assay type: biochemical; conditions: read-out: % inhibition against EGFR (Compound at 0.041 μM)
# Chain of EGFR (ErbB1) (P00533 25-1210): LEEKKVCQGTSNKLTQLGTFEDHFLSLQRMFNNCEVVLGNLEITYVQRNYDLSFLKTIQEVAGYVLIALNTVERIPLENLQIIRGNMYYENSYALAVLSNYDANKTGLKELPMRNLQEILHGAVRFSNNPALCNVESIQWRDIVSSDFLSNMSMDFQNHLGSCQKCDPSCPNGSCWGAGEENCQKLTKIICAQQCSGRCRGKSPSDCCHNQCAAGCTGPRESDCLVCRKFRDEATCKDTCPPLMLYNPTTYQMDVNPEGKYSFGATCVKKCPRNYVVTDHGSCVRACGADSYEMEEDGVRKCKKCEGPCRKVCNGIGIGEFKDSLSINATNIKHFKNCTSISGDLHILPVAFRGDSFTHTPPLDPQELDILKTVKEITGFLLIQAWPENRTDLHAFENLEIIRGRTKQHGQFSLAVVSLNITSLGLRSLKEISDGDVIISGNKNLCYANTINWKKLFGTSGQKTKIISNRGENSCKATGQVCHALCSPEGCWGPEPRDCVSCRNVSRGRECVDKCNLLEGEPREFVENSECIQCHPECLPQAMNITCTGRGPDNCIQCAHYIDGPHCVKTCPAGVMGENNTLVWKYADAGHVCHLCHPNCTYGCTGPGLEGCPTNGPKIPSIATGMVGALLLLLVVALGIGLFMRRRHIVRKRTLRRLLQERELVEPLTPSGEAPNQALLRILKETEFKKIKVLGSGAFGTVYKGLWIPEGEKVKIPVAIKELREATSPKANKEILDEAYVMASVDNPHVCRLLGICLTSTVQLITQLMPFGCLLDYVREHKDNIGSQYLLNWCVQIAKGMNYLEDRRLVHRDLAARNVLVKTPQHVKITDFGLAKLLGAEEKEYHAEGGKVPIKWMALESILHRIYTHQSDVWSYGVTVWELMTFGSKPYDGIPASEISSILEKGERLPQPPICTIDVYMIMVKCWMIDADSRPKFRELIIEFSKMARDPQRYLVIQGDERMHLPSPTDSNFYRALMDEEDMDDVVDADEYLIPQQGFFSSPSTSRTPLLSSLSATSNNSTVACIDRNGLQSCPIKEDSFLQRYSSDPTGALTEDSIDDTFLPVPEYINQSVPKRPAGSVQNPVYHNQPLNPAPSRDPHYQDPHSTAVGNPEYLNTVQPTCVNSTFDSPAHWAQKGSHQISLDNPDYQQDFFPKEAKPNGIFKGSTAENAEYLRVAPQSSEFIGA
# Description: Inhibitory activities of compounds against BTK, EGFR and EGFR mutants (EGFR L858R, EGFR T790M, EGFR L858R/T790M), FGFR1, FGFR2, JAK2, JAK3 and KDR were measured by Invitrogen using Z'-LYTE® Method as briefly described in the following. Test Compounds are screened in 1% DMSO (final) in the well. For 10 point titrations, 3-fold serial dilutions are conducted from the starting concentration. All ATP Solutions are diluted to a 4× working concentration in Kinase Buffer (50 mM HEPES pH 7.5, 0.01% BRIJ-35, 10 mM MgCl2, 1 mM EGTA). Peptide/Kinase Mixtures are diluted to a 2× working concentration in the appropriate Kinase Buffers as described below. (i) Peptide/Kinase Mixtures for Measurement of EGFR (ErbB1): The 2×EGFR (ErbB1)/[…] mixture is prepared in 50 mM HEPES pH 7.5, 0.01% BRIJ-35, 10 mM MgCl2. 4 mM MnCl2, 1 mM EGTA, 2 mM DTT. The final 10 μL Kinase Reaction consists of 1.1-5.25 ng EGFR (ErbB1) and 2 μM […] in 50 mM HEPES pH 7.5, 0.01% BRIJ-35, 10 mM MgCl2, 2 mM MnCl2. 1 mM EGTA, 1 mM DTT. After the 1 hour Kinase Reaction incubation, 5 μL of a 1:64 dilution of Development Reagent B is added. Reaction starts by 30-second shaking of mixture consisting of 2.5 μL 4× test compound, […] 2× kinase reaction mixture and 2.5 μL 4×ATP Solution on Bar-coded Corning, low volume NBS, black 384-well plate (Corning Cat. #3676). Then the mixture is incubated for 60-minute at room temperature for the kinase reaction, followed by addition of 5 μL of a 1:1024 dilution of development reagent A and 30-second plate shake. The mixture is then incubated for another 60-minute at room temperature for development reaction. Finally fluorescence is read by plate reader. To determine IC50 of a compound against EGFR, EGFR mutant and other kinases, a series of concentrations of the compound were tested for the inhibition.
# Chain of EGFR (ErbB1) T790M L858R (P00533 25-1210 T790M/L858R): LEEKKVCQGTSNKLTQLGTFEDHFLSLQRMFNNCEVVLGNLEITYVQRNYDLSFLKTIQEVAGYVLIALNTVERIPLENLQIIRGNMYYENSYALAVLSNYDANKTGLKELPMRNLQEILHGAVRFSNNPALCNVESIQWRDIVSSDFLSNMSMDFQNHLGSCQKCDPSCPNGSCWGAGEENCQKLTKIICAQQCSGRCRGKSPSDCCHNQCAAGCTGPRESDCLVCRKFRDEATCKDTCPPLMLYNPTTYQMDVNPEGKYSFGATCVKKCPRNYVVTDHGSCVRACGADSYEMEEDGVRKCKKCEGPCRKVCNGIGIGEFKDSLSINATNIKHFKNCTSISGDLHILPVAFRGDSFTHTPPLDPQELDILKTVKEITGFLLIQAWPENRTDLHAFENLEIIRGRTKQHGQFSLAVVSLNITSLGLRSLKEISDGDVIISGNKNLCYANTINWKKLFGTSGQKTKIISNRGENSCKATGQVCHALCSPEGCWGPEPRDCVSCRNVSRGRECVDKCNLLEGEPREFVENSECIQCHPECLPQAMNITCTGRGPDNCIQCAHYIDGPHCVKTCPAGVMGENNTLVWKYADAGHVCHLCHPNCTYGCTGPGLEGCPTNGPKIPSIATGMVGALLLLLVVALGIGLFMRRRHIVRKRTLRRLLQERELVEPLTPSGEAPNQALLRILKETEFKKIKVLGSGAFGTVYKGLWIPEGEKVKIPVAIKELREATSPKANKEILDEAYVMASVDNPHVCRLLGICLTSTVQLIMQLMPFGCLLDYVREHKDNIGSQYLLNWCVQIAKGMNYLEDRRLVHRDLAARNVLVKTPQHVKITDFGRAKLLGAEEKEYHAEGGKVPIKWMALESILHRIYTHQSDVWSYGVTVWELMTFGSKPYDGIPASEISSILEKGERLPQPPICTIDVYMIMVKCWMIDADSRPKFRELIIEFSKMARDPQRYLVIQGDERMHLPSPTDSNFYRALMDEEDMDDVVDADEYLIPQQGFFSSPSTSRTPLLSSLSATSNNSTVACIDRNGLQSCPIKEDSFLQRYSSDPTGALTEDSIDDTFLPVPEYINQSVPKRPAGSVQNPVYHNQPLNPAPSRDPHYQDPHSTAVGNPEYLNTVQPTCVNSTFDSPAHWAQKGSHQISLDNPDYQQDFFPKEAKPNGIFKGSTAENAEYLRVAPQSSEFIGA
inhibition at 0.0137 µM (EGFR (ErbB1) T790M L858R),IC50 (H1975 cells),inhibition at 0.041 µM (EGFR (ErbB1)),IC50 (EGFR (ErbB1) T790M L858R; read-out: IC50 against EGFR L858R/T790M),Compound
< 50%,> 0.5 µM,–,–,"C=CC(=O)Nc1cccc(-c2cccc3cnc(Nc4ccc(-c5cn[nH]c5)cc4)nc23)c1 [Example C159, N-(3-(2-((4-(1H-pyrazol-4-yl)phenyl)amino)quinazolin-8-yl)phenyl)acrylamide]"
< 50%,0.1 to 0.5 µM,< 50%,–,"C=CC(=O)Nc1cccc(-c2cccc3cnc(Nc4ccc(O[C@@H]5CCN(C(C)=O)C5)cc4)nc23)c1 [Example C133, (R)-N-(3-(2-((4-((1-acetylpyrrolidin-3-yl)oxy)phenyl)amino)quinazolin-8-yl)phenyl)acrylamide]"
< 50%,< 0.1 µM,< 50%,–,"C=CC(=O)Nc1cccc(-c2cccc3cnc(Nc4ccc(O[C@H]5CCN(C(C)=O)C5)cc4)nc23)c1 [Example C131, (S)-N-(3-(2-((4-((1-acetylpyrrolidin-3-yl)oxy)phenyl)amino)quinazolin-8-yl)phenyl)acrylamide]"
< 50%,< 0.1 µM,< 50%,–,"C=CC(=O)Nc1cccc(-c2cccc3cnc(Nc4ccc(N[C@H]5CCN(C(C)=O)C5)cc4)nc23)c1 [Example C128, (S)-N-(3-(2-((4-((1-acetylpyrrolidin-3-yl)amino)phenyl)amino)quinazolin-8-yl)phenyl)acrylamide]"
< 50%,< 0.1 µM,< 50%,–,"C=CC(=O)Nc1cccc(-c2cccc3cnc(Nc4ccc(N5CCN(CC(C)(C)O)CC5)cc4F)nc23)c1 [Example C149, N-(3-(2-((2-fluoro-4-(4-(2-hydroxy-2-methylpropyl)piperazin-1-yl)phenyl)amino)quinazolin-8-yl)phenyl)acrylamide]"
–,< 0.1 µM,–,–,"C=CC(=O)Nc1cccc(-c2cccc3cnc(Nc4ccc(N5CCN(CCO)CC5)c(F)c4)nc23)c1 [Example C142, N-(3-(2-((3-fluoro-4-(4-(2-hydroxyethyl)piperazin-1-yl)phenyl)amino)quinazolin-8-yl)phenyl)acrylamide]"
> 50%,> 0.5 µM,< 50%,–,"CC(=O)N1CCN(c2ccc(Nc3ncc4cccc(-c5cccc(NC(=O)/C=C/CN(C)C)c5)c4n3)cc2)CC1 [Example C050, (E)-N-(3-(2-((4-(4-acetylpiperazin-1-yl)phenyl)amino)quinazolin-8-yl)phenyl)-4-(dimethylamino)but-2-enamide]"
< 50%,> 0.5 µM,< 50%,–,"C=CC(=O)Nc1cccc(-c2cccc3cnc(Nc4ccc(NCCO)cc4)nc23)c1 [Example C066, N-(3-(2-((4-((2-hydroxyethyl)amino)phenyl)amino)quinazolin-8-yl)phenyl)acrylamide]"
> 50%,0.1 to 0.5 µM,< 50%,–,"C=CC(=O)Nc1cccc(-c2cccc3cnc(Nc4ccc(N5CCN(C(=O)NC)CC5)cc4)nc23)c1 [Example C083, 4-(4-((8-(3-acrylamidophenyl)quinazolin-2-yl)amino)phenyl)-N-methylpiperazine-1-carboxamide]"
> 50%,< 0.1 µM,< 50%,–,"C=CC(=O)Nc1cccc(-c2cccc3cnc(Nc4cc(F)c(N5CCN(C)CC5)c(F)c4)nc23)c1 [Example C146, N-(3-(2-((3,5-difluoro-4-(4-methylpiperazin-1-yl)phenyl)amino)quinazolin-8-yl)phenyl)acrylamide]"
< 50%,0.1 to 0.5 µM,< 50%,–,"C=CC(=O)Nc1cccc(-c2cccc3cnc(Nc4ccc(N5CCN(CC(N)=O)CC5)c(F)c4)nc23)c1 [Example C164, N-(3-(2-((4-(4-(2-amino-2-oxoethyl)piperazin-1-yl)-3-fluorophenyl)amino)quinazolin-8-yl)phenyl)acrylamide]"
> 50%,0.1 to 0.5 µM,< 50%,–,"C=CC(=O)Nc1cccc(-c2cccc3cnc(Nc4ccc(N5CCN(C)C(C(N)=O)C5)cc4)nc23)c1 (centres unmarked) [Example C093, 4-(4-((8-(3-acrylamidophenyl)quinazolin-2-yl)amino)phenyl)-1-methylpiperazine-2-carboxamide]"
< 50%,0.1 to 0.5 µM,< 50%,–,"C=CC(=O)Nc1cccc(-c2cccc3cnc(Nc4ccc(N5CCN(C)C(C(=O)OC)C5)cc4)nc23)c1 (centres unmarked) [Example C089, methyl 4-(4-((8-(3-acrylamidophenyl)quinazolin-2-yl)amino)phenyl)-1-methylpiperazine-2-carboxylate]"
< 50%,> 0.5 µM,> 50%,–,"CCC(=O)Nc1cccc(-c2c(C)ccc3cnc(Nc4ccc(N5CCN(C)CC5)cc4)nc23)c1 [Example C042, N-(3-(7-methyl-2-((4-(4-methylpiperazin-1-yl)phenyl)amino)quinazolin-8-yl)phenyl)propionamide]"
> 50%,< 0.1 µM,< 50%,< 0.1 µM,"C=CC(=O)Nc1cccc(-c2cccc3cnc(Nc4ccc(N5CCN(C)C(CO)C5)cc4)nc23)c1 (centres unmarked) [Example C077, N-(3-(2-((4-(3-(hydroxymethyl)-4-methylpiperazin-1-yl)phenyl)amino)quinazolin-8-yl)phenyl)acrylamide]"
> 50%,0.1 to 0.5 µM,< 50%,–,"C=CC(=O)Nc1ccc(Cl)c(-c2cccc3cnc(Nc4ccc(N5CCN(C)CC5)cc4)nc23)c1 [Example C073, N-(4-chloro-3-(2-((4-(4-methylpiperazin-1-yl)phenyl)amino)quinazolin-8-yl)phenyl)acrylamide]"
–,0.1 to 0.5 µM,–,–,"C=CC(=O)Nc1cccc(-c2cccc3cnc(Nc4cc(F)c(N5CCN(CC(C)(C)O)CC5)cc4F)nc23)c1 [Example C163, N-(3-(2-((2,5-difluoro-4-(4-(2-hydroxy-2-methylpropyl)piperazin-1-yl)phenyl)amino)quinazolin-8-yl)phenyl)acrylamide]"
< 50%,0.1 to 0.5 µM,–,–,"C=CC(=O)Nc1cccc(-c2cccc3cnc(Nc4ccc(-n5cccn5)cc4)nc23)c1 [Example C158, N-(3-(2-((4-(1H-pyrazol-1-yl)phenyl)amino)quinazolin-8-yl)phenyl)acrylamide]"
< 50%,> 0.5 µM,–,–,"C=CC(=O)Nc1cccc(-c2cccc3cnc(Nc4ccc(OC5CCN(CCF)CC5)cc4F)nc23)c1 [Example C157, N-(3-(2-((2-fluoro-4-((1-(2-fluoroethyl)piperidin-4-yl)oxy)phenyl)amino)quinazolin-8-yl)phenyl)acrylamide]"
< 50%,0.1 to 0.5 µM,–,–,"C=CC(=O)Nc1cccc(-c2cccc3cnc(Nc4cc(F)c(N5CCN(C)CC5)cc4F)nc23)c1 [Example C160, N-(3-(2-((2,5-difluoro-4-(4-methylpiperazin-1-yl)phenyl)amino)quinazolin-8-yl)phenyl)acrylamide]"
